Source: US20260158056A1, “USE OF LOW MOLECULAR WEIGHT HYALURONIC ACID FOR THE TREATMENT OF LUNG MUCOSAL INFLAMMATION” (INSTITUT NATIONAL DE LA SANTÉ ET DE LA RECHERCHE MÉDICALE, priority 2021, published 2026)

Assays:
[1] = tested on: mucin MUC-5B secreted by F508del/F508del CF human airway epithelial cells; assay: MUC-5B ELISA, CF airway epithelial cells cultured at the air-liquid interface (ALI); type: cell-based
Procedure: FIG. 8: Measurement by ELISA assay of the mucin MUC-5B secreted by F508del/F508del CF human airway epithelial cells cultured at the air-liquid interface (ALI). Airway epithelial cells were seeded in bi-compartmental chambers and cultured in liquid-liquid condition until confluence was reached. At confluence, culture medium from the upper chamber was removed to create an air-liquid interface (ALI) that will favor epithelial cell differentiation. From the ALI creation, the different treatments (15-45 kDa sodium-hyaluronic acid (HA-Na 15-45 kDa) (ARD—Pomacle—France—as prepared according to WO2004050187), 15-30 kDa sodium-hyaluronic acid (HA-Na 15-30 kDa) (Sigma Aldrich), or 30-50 kDa sodium-hyaluronic acid (HA-Na 30-50 kDa) (Sigma Aldrich)) were added at 1 mg/mL to the culture medium in the basal chamber. The culture medium was renewed three times a week. At ALI day 15 and ALI Day 25, the culture in the upper chamber was rinsed with PBS then, a small volume of fresh medium without any treatment was placed at the contact of the apical part of the epithelium. After a 4 h-period, this apical culture medium was collected and the MUC-5B content was determined by ELISA assay. n=3 different F508del/F508del CF patients. p<0.001 (***); p<0.01 (**); p<0.05 (*). ns: non-significant.
FIG. 9: Measurement by ELISA assay of the mucin MUC-5B secreted by F508del/F508del CF human airway epithelial cells cultured at the air-liquid interface (ALI). Airway epithelial cells were seeded in bi-compartmental chambers and cultured in liquid-liquid condition until confluence was reached. At confluence, culture medium from the upper chamber was removed to create an air-liquid interface (ALI) that will favor epithelial cell differentiation. From the ALI creation, the different treatments (15-45 kDa sodium-hyaluronic acid (HA-Na 15-45 kDa) (ARD—Pomacle—France—as prepared according to WO2004050187), 15-45 kDa calcium-hyaluronic acid (HA-Ca 15-45 kDa; ARD), or 15-45 kDa potassium-hyaluronic acid (HA-K 15-45 kDa; ARD) were added at 1 mg/mL to the culture medium in the basal chamber. The culture medium was renewed three times a week. At ALI day 15 and ALI Day 25, the culture in the upper chamber was rinsed with PBS then, a small volume of fresh medium without any treatment was placed at the contact of the apical part of the epithelium. After a 4 h-period, this apical culture medium was collected and the MUC-5B content was determined by ELISA assay. n=3 different F508del/F508del CF patients. p<0.001 (***); p<0.01 (**); p<0.05 (*). ns: non-significant.
FIG. 10: Measurement by ELISA assay of the mucin MUC-5B secreted by F508del/F508del CF human airway epithelial cells cultured at the air-liquid interface (ALI). Airway epithelial cells were seeded in bi-compartmental chambers and cultured in liquid-liquid condition until confluence was reached. At confluence, culture medium from the upper chamber was removed to create an air-liquid interface (ALI) that will favor epithelial cell differentiation. From the ALI creation, 15-45 kDa sodium-hyaluronic acid (HA-Na 15-45 kDa) (ARD—Pomacle—France—as prepared according to WO2004050187) was added at 2 mg/mL, 1 mg/mL or 0.5 mg/mL to the culture medium in the basal chamber. The culture medium was renewed three times a week. At ALI day 15 and ALI Day 25, the culture in the upper chamber was rinsed with PBS then, a small volume of fresh medium without any treatment was placed at the contact of the apical part of the epithelium. After a 4 h-period, this apical culture medium was collected and the MUC-5B content was determined by ELISA assay. n=3 different F508del/F508del CF patients. p<0.001 (***); p<0.01 (**); p<0.05 (*). ns: non-significant.

[2] = tested on: IL-8 secreted by non-CF human airway epithelial cells; assay: IL-8 ELISA, non-CF airway epithelial cells cultured at the air-liquid interface (ALI); type: cell-based; settings: FIG. 11, 14; 1 mg/mL from ALI creation, ALI day 15, vs control condition; n=1 non-CF patient
Procedure: FIG. 11: Measurement by ELISA assay of the pro-inflammatory chemokine IL-8 secreted by non-CF human airway epithelial cells cultured at the air-liquid interface (ALI). Airway epithelial cells were seeded in bi-compartmental chambers and cultured in liquid-liquid condition until confluence was reached. At confluence, culture medium from the upper chamber was removed to create an air-liquid interface (ALI) that will favor epithelial cell differentiation. From the ALI creation, the different treatments (15-45 kDa sodium-hyaluronic acid (HA-Na 15-45 kDa) (ARD—Pomacle—France—as prepared according to WO2004050187), 15-30 kDa sodium-hyaluronic acid (HA-Na 15-30 kDa) (Sigma Aldrich), or 30-50 kDa sodium-hyaluronic acid (HA-Na 30-50 kDa) (Sigma Aldrich)) were added at 1 mg/mL to the culture medium in the basal chamber. The culture medium was renewed three times a week. At ALI day 15, the culture medium was replaced by fresh medium without any treatment. After a 4 h-period, this culture medium was collected and the IL-8 content was determined by ELISA assay. n=1 non-CF patient. p<0.001 (***); p<0.01 (**); p<0.05 (*). ns: non-significant.
FIG. 14: Measurement by ELISA assay of the pro-inflammatory chemokine IL-8 secreted by non-CF human airway epithelial cells cultured at the air-liquid interface (ALI). Airway epithelial cells were seeded in bi-compartmental chambers and cultured in liquid-liquid condition until confluence was reached. At confluence, culture medium from the upper chamber was removed to create an air-liquid interface (ALI) that will favor epithelial cell differentiation. From the ALI creation, the different treatments (15-45 kDa sodium-hyaluronic acid (HA-Na 15-45 kDa) (ARD—Pomacle—France—as prepared according to WO2004050187), 15-45 kDa calcium-hyaluronic acid (HA-Ca 15-45 kDa; ARD) or 15-45 kDa potassium-hyaluronic acid (HA-K 15-45 kDa; ARD) were added at 1 mg/mL to the culture medium in the basal chamber. The culture medium was renewed three times a week. At ALI day 15, the culture medium was replaced by fresh medium without any treatment. After a for 4 h-period, this culture medium was collected and the IL-8 content was determined by ELISA assay. n=1 non-CF patient. p<0.001 (***); p<0.01 (**); p<0.05 (*). ns: non-significant.

[3] = 1 mg/mL, ALI day 15, vs control condition, n=3 CF patients
[4] = 1 mg/mL, ALI day 25, vs control condition, n=3 CF patients

Substance	decrease in MUC-5B secretion [1, 3]	decrease in IL-8 secretion [2]	decrease in MUC-5B secretion [1, 4]	decrease in MUC-5B secretion ([1]; FIG. 10, 0.5 mg/mL, ALI day 15 and ALI day 25)	decrease in MUC-5B secretion ([1]; FIG. 10, 2 mg/mL, ALI day 15)	decrease in MUC-5B secretion ([1]; FIG. 10, 2 mg/mL, ALI day 25)
15-45 kDa potassium-hyaluronic acid [HA-K 15-45 kDa]	34.7%	57.9%	–	–	–	–
30-50 kDa sodium-hyaluronic acid [HA-Na 30-50 kDa]	68.7%	66.6%	67.1%	–	–	–
15-30 kDa sodium-hyaluronic acid [HA-Na 15-30 kDa]	14.1%	60.6%	17.3%	–	–	–
15-45 kDa calcium-hyaluronic acid [HA-Ca 15-45 kDa]	85.5%	70.5%	58.8%	–	–	–
15-45 kDa sodium-hyaluronic acid [HA-Na 15-45 kDa]	37.3%	69.7%	33.2%	does not have any effect	97.9%	81.2%
